Test results taken from PubChem BioAssay AID463074 (Broad Institute, 2010).
Active and inactive are the calls of the source.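 Rule for the calls: active = AC50 no more than tenfold above the top dose tested, or full inhibition at every dose with a flat fit (cut at about 19 µM in these data); inconclusive = flat curve fit with inhibition between 30% and 70%, or poor fit; inactive = AC50 more than tenfold above the top dose tested.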

Test system: HMLE_sh_eGFP viability, CellTiter-Glo luminescence, 72 h
Test: viability loss of HMLE_sh_eGFP cells – cell-based, luminescence, counter-screen for HMLE_sh_ECad selective toxicity project, dose response (AID 463074);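 note: counterscreen control line to flag general toxicity for the HMLE_sh_ECad screen; potency for loss of viability as luminescence drops below DMSO wells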

Row | SMILES | AC50
1 | CCc1ccc(-c2cc3c(=O)n(CC(=O)NCCN4CCCCC4C)nc(C)n3n2)cc1 (centres undefined) | 5.23 µM
2 | C=Cn1ccnc1P(=S)(c1ccc2c(c1)c1ccccc1n2CC)c1nccn1C=C | 2.18 µM
3 | CC1=NN(c2ccccc2)C(=O)/C1=C/c1c(O)n(-c2ccc(F)cc2)[nH]c1=O | 15.8 µM
4 | Clc1cccc(Nc2nc(-c3ccncc3)cs2)c1 | 5.03 µM
5 | Cc1cc(C)c2[nH]c(=O)c(CN(Cc3cccs3)C(=S)NCc3ccco3)cc2c1 | > 19.5 µM (inactive)
6 | CN(C)S(=O)(=O)Oc1cccc(C(=O)Nc2ccc(Cl)c(Cl)c2)c1 | 6.22 µM
7 | CCc1ccc(-c2cc(C(=O)N/N=C/c3c[nH]c4ccccc34)[nH]n2)cc1 | 12.6 µM
8 | O=c1[nH]c2ccccc2n1C1CCN(CCCC(c2ccc(F)cc2)c2ccc(F)cc2)CC1 | 6.27 µM
9 | Cc1ccc(S(=O)(=O)c2c(C)nn(C(C)(C)C)c2OC(=O)c2ccc(Br)o2)cc1 | 2.64 µM
10 | CCCSc1nsc(NC(=O)C(c2ccccc2)c2ccccc2)n1 | 3.64 µM
11 | Cn1c(=O)c(C(=O)NNC(=O)c2ccc(Br)cc2)c(O)c2ccccc21 | 5.69 µM
12 | O=C(NC12CC3CC(CC(C3)C1)C2)c1ccc([N+](=O)[O-])o1 | 7.04 µM
13 | COc1ccc(N(C(=O)c2ccccc2C)S(=O)(=O)c2cccs2)cc1 | 0.231 µM
14 | Cc1ccc(NS(=O)(=O)c2cc3c4c(cccc4c2)C(=O)NC3=O)cc1C | 6.49 µM
15 | COc1ccc2nc(C)cc(SCC(=O)N/N=C/c3ccc(O)cc3O)c2c1 | 2.33 µM
16 | O=C(Cn1c2ccccc2c(=O)c2ccccc21)N/N=C/c1ccc(N2CCCC2)c([N+](=O)[O-])c1 | 2.43 µM
17 | COc1ccc2c(c1)[nH]c1c(=O)n(/N=C/C3C(C)C=C(C)CC3C)c(=O)[nH]c12 (centres undefined) | > 19.5 µM (inactive)
18 | CCc1ccc(CNC(=O)C2CCN(c3nnc(C)c4c(C)n(-c5ccc(C)cc5)nc34)CC2)cc1 | 4.14 µM
19 | COc1ccc2sc(-c3ccc(SC)cc3)c(C#CCO)c2c1 | 8.45 µM
20 | CCCn1c(SCC#N)nc2c(c1=O)C1(CCCC1)Cc1ccccc1-2 | 1.52 µM
21 | CC1=C(C(=O)OC2CCCCC2)C(c2ccc(C)o2)C2=C(CC(C)(C)CC2=O)N1 (centres undefined) | 12.9 µM
22 | N#CCSc1nc2ccccc2c2nc3ccccc3n12 | 5.1 µM
23 | Cc1ccc(N2C(=O)NC(=O)/C(=C\C=C\c3ccco3)C2=O)cc1 | 4.54 µM
24 | O=c1c2c3c(sc2nc(NCCO)n1Cc1ccco1)CCCCC3 | 2.01 µM
25 | CN(C)c1ccc(/C=C(\Cl)c2nc3ccccc3s2)cc1 | 2.85 µM
26 | Cc1nc(-c2ccccc2)sc1C(=O)/C=C/c1ccc(Cl)cc1 | 7.62 µM

Row | SMILES | AC50
27 | Cc1ccc(-c2nnc(Sc3nc4ccccc4o3)c3ccccc23)cc1 | 6.74 µM
28 | CN(C)CCOc1ccc(-c2c(-c3ccsc3)sc3ccccc23)cc1 | 3.04 µM
29 | C=CCC[C@H](Cc1ccc(F)cc1)C(=O)O[C@H](CNC(=O)[C@@H](CC=C)CC(=O)N(CCO)Cc1ccccc1)c1ccccc1 | 7.4 µM
30 | FC(F)(F)c1ccc(-c2noc(CN3CCCN(C4CCCCC4)CC3)n2)cc1 | 7.39 µM
31 | CN(C)CCNC(=O)c1sc2nc(-c3ccccc3)cc(C(F)(F)F)c2c1N | 5.23 µM
32 | O=S(=O)(Nc1ccc(-c2nnc(SCc3ccc(Cl)cc3)o2)cc1)c1ccccc1 | 3.6 µM
33 | CCOC(=O)c1c(C)[nH]c(C(=O)N/N=C\c2ccccc2O)c1C | 8.76 µM
34 | O=c1cc(N2CCCCC2)c(-c2ccccc2)nn1Cc1c(Cl)cccc1Cl | 5.72 µM
35 | O=[N+]([O-])c1ccc(N/N=C/c2c[nH]c3ccccc23)c(S(=O)(=O)Nc2ccc(Cl)cc2)c1 | 1.66 µM
36 | CSc1nc2ccccc2cc1/C=C(\C#N)c1cccc(Cl)c1 | 2.73 µM
37 | COc1ccccc1NC(=O)c1ccc(S(=O)(=O)N2CCCC(C)C2)cc1 (centres undefined) | > 19.5 µM (inactive)
38 | COc1ccc2cc1Oc1ccc(cc1)C[C@H]1c3c(cc(OC)c4c3Oc3c(ccc5c3[C@H](C2)N(C)CC5)O4)CCN1C | 3.63 µM
39 | O=C(NC(=S)Nc1ccc(N2CCCCC2)c(Cl)c1)c1cccs1 | 8.62 µM
40 | CC(=O)NC(c1ccccc1)c1cc([N+](=O)[O-])c2cccnc2c1O (centres undefined) | 4.02 µM
41 | COc1cc(OC)cc(-c2nnc(SCC(=O)N(Cc3ccccc3)C(C)(C)C)o2)c1 | 2.74 µM
42 | CC(C)C(=O)NC(c1ccccc1)c1cc([N+](=O)[O-])c2cccnc2c1O (centres undefined) | 5.91 µM
43 | O=C(Nc1ccc(O)c(-c2nc3ccccc3o2)c1)C1(c2ccc(Br)cc2)CCCC1 | > 19.5 µM (inactive)
44 | CCCc1cc2c(=O)c(-c3ccc4c(c3)OCCO4)coc2cc1OC(=O)c1ccco1 | 10.9 µM
45 | COc1c(Cl)cc(Cl)cc1/C=C/C(=O)c1ccc(NC(=O)c2cccs2)cc1 | 1.31 µM
46 | COc1cc(CNCCc2c[nH]c3ccccc23)ccc1OCc1ccc(F)cc1 | 4.2 µM
47 | COc1cc2cnc(-c3ccccc3)c(-c3cccc(C(F)(F)F)c3)c2cc1OC | 6.67 µM
48 | Cc1cccc(-n2c(/C=C/c3ccc([N+](=O)[O-])o3)nc3ccccc3c2=O)c1 | 1.99 µM
49 | Cc1cc(C)cc(NC(=O)CCc2nc3sc4c(c3c(=O)[nH]2)CCCC4)c1 | 5.26 µM
50 | O=C1[C@H]2CCCC[C@H]2C(=O)N1CCCCN1CCN(c2nsc3ccccc23)CC1 | 4.51 µM
51 | COc1ccccc1C1c2ccc3ccccc3c2Oc2ncn(CCN(C)C)c(=N)c21 (centres undefined) | 4.22 µM
52 | O=C(CNC(=O)C(c1ccccc1)c1ccccc1)N/N=C/c1ccc(O)cc1O | 1.88 µM

Row | SMILES | AC50
53 | O=C(c1cnn2c1NC(c1ccc(Br)cc1)CC2C(F)(F)F)N1CCN2CCCC2C1 (centres undefined) | 4.46 µM
54 | COc1ccc(/C=N/NC(=O)CCn2cnc(-c3ccccc3)c2-c2ccccc2)cc1OC | 0.922 µM
55 | CCOc1cc(/C=N/O)cc(Br)c1OCc1ccc(Cl)cc1 | 5.69 µM
56 | Cc1cc(C)c2nc(NNC(=O)c3cc(-c4cccs4)nc4ccccc34)sc2c1 | 2.95 µM
57 | CCCCCCSc1ccc([C@H]2N[C@@](C)(C(=O)OC)[C@H]3C(=O)N(CC)C(=O)[C@@H]23)cc1 | 19.8 µM
58 | CNc1ccccc1C(C)(C)c1cc(-c2cc(C)cc(C)c2)no1 | 18.4 µM
59 | O=C(NCCc1c[nH]c2ccccc12)C1CCC(Cn2c(=S)[nH]c3ccccc3c2=O)CC1 (centres undefined) | 0.707 µM
60 | CC1=[N+](C)c2ccc3ccccc3c2C1(C)C | > 19.5 µM (inactive)
61 | COCCNc1nnc(SC(C)C(=O)Nc2ccc(-c3nc4ccc(C)cc4s3)cc2)s1 (centres undefined) | 10.5 µM
62 | COc1cccc(-c2cc(=O)c3cc(NC(=O)c4ccc(N(C)C)cc4)ccc3[nH]2)c1 | 0.559 µM
63 | Cc1ccc(NC(=S)N(CCCN2CCCC2)Cc2cccn2Cc2ccc(Cl)cc2)cc1Cl | 4.92 µM
64 | FC(F)(F)c1nnc(-c2ccccc2)nc1Sc1ccc(Cl)cc1 | 6.48 µM
65 | O=[N+]([O-])c1cccnc1N1CCC(c2cc(-c3ccc(Cl)cc3Cl)n[nH]2)CC1 | 4.6 µM
66 | Cc1cc(C)n(Cc2ccc(NC(=O)c3ccc(COc4ccccc4Br)cc3)cc2)n1 | 3.03 µM
67 | Cc1cc(C(=O)CN2C(=O)C(=O)N(Cc3ccccc3)C2=O)c(C)n1Cc1ccccc1 | 11.8 µM
68 | Cc1nc([N+](=O)[O-])c(Br)n1CC(=O)c1ccc2ccccc2c1 | 6.46 µM
69 | COc1ccc(-c2sc3ccccc3c2-c2ccc(O)cc2)cc1 | 6.43 µM
70 | O=S(=O)(c1ccc(Cl)cc1)N1CCC(n2cnc3cc(C(F)(F)F)ccc32)CC1 | 4 µM
71 | C/C(=N\NC(=S)Nc1ccc(F)cc1)c1ccc2c(c1)OCCO2 | 2.36 µM
72 | c1ccc(-c2cc(-c3ccncc3)nc3ccc4ccccc4c23)cc1 | 3.61 µM
73 | O=S(=O)(c1ccc2ccccc2c1)N1CCN(c2ccc(O)cc2)CC1 | 8.59 µM
74 | COc1cc(/C=C2\C(=O)ON=C2c2ccc(Cl)cc2)ccc1O | 1.55 µM
75 | CC1(C)CC2CC(C)(CN2/C=N/c2sc3c(c2C#N)CC(C)(C)NC3(C)C)C1 (centres undefined) | 2.59 µM
76 | CCOC(=O)c1ccc(NC(=O)c2nc[nH]c2C(=O)NCCCCNC(=O)c2[nH]cnc2C(=O)Nc2ccc(C(=O)OCC)cc2)cc1 | 3.99 µM
77 | N#Cc1c(NC(=O)Cn2c(=O)oc3ccccc32)oc(-c2ccccc2)c1-c1ccccc1 | 4.24 µM
78 | CCN(CC)CCCNC(=S)N1CCN(c2nc(-c3ccccc3)cs2)CC1 | 5.65 µM

Row | SMILES | AC50
79 | N#Cc1ccc(Nc2nc(-c3ccc(O)cc3O)cs2)cc1C(F)(F)F | 3.87 µM
80 | CC(C)Cc1nc2oc3c(Cl)ncnc3c2c2c1CCCC2 | 4.82 µM
81 | Cc1csc(NC(=S)Nc2cccc(Cl)c2)n1 | 10.4 µM
82 | CCN(c1ccc(NC(=O)CCc2nc3sc4c(c3c(=O)[nH]2)CCCC4)cc1)C(C)C | 9.45 µM
83 | CC[C@@]1(O)C(=O)OCc2c1cc1n(c2=O)Cc2cc3c(NC(=O)CN)cccc3nc2-1 | 2.56 µM
84 | COCCNC(=O)NC1(C(F)(F)F)Oc2ccc(Cl)cc2O1 (centres undefined) | 17.6 µM
85 | CC(C)(C)c1cc(C=C(C#N)C#N)cc(C(C)(C)C)c1O | 3.08 µM
86 | C=C(CC1([C@@H](NP(=O)(c2ccccc2)c2ccccc2)[C@H]2C[C@@H]2CCCC)CC1)c1ccccc1 | 4.57 µM
87 | COc1ccc(-c2cc([C@H]3[C@@H]4C=CCC[C@@]4(C)C(=O)N3Cc3ccccc3)ccc2F)cc1OC | 5.67 µM
88 | CN1CCN(/N=C/c2ccc(N(c3ccccc3)c3ccccc3)cc2)CC1 | 6.89 µM
89 | OCCCNc1cc(-c2ccccc2)nc2cc(-c3ccc(F)cc3)nn12 | 9.12 µM
90 | COc1cc(CN2CCN(c3cccc(Cl)c3)CC2)cc(OC)c1OC | 2.58 µM
91 | CCOc1cc2c(cc1OCC)-n1cccc1C(c1ccc(C(C)C)cc1)NC2 (centres undefined) | 6.13 µM
92 | O=C(/C(=C/O)N=Nc1ccc(Cl)cc1)c1ccncc1 | 6.53 µM
93 | COc1ccc(NC(=O)c2cc(-c3ccccc3OC)on2)cc1 | 0.983 µM
94 | O=C(Nc1cccc(-c2csc(-c3ccccc3)n2)c1)c1cccs1 | 5.22 µM
95 | CC1(C)C[C@@H]2C[C@@](C)(CN2C(=O)c2cc(COc3cccc(C(F)(F)F)c3)on2)C1 | 4.8 µM
96 | COc1ccc(-c2cn(CCc3c[nH]c4ccccc34)nn2)cc1 | 2.69 µM
97 | CCCOc1ccc(C(=O)C(CN2CCCC2)c2ccccc2)cc1 (centres undefined) | 3.3 µM
98 | COc1ccc(C(=O)/C=C/c2ccc(N3CCCCC3)c([N+](=O)[O-])c2)c(OC)c1 | 6.6 µM
99 | CC(C)N1CCc2c(sc(NC(=O)c3cc(-c4cccs4)nc4ccccc34)c2C(N)=O)C1 | 12.9 µM
100 | Clc1ccc(C(c2ccccc2Cl)C(Cl)Cl)cc1 (centres undefined) | 6.32 µM
101 | O=C(NCCc1c[nH]c2ccccc12)C(=O)c1c[nH]c2ccccc12 | 6.75 µM
102 | CN(C)CCOc1ccc(-c2c(-c3ccccc3)sc3ccccc23)cc1 | 2.53 µM
103 | CCOC(=O)C(=O)NNc1ccc(F)cc1 | 1.45 µM
104 | COc1ccc(-c2sc3ccccc3c2C#Cc2cncn2C)cc1 | 4.83 µM
